Experiments:
GLP-1 plasma levels = test: In vivo study for effect of test compound on GLP-1 plasma levels (postprandial profile); conditions: dogs fasted 22 hours, liquid meal 18% fat, compound given orally with the meal; compared with own profile without compound; compound 223 at 0.3 mg/kg in FIG. 1
Procedure: B) In Vivo Study for Effect of Test Compound on GLP-1 Plasma Levels
Elevation of GLP-1 plasma levels by a DGAT inhibitor was studied as follows:
Dogs were deprived from food for a period of 22 hours. At time 0, animals were given a liquid meal, containing 18% fat (w/w), by gavage with a stomach tube. The test compound was given orally together with the meal. Afterwards, a postprandial plasma profile was determined for GLP-1. Therefore, blood was collected at predetermined time intervals in ice-cooled Vacutainers EDTA-plasma tubes and GLP-1 levels were measured in the samples taken at 0 hour (just before the meal) and at 0.5, 1, 2, 4, 6, 8 and 24 hours after dosing. Six dogs (3 males and 3 females) were included per dosage group and the plasma GLP-1 profile was compared with their own GLP-1 profile previously determined in the same conditions but without administration of the test compound.
GLP-1 determinations in plasma were performed with a Glucagon-like peptide-1 (active) ELISA kit 96-well plate of LINCO Research.

human DGAT1 = molecular target: T1, human DGAT1 (Homo sapiens, UniProt O75907); test: Inhibition of DGAT1 activity, FlashPlate assay with DGAT1 membrane preparations and substrate micelles; format: biochemical; conditions: pIC50 = -logIC50, IC50 values expressed in M
T1 construct: FLAG (N); made in house; host or cells: SF9 insect cells (pFastBac baculovirus); total cell membranes
T1 sequence (O75907 1-488): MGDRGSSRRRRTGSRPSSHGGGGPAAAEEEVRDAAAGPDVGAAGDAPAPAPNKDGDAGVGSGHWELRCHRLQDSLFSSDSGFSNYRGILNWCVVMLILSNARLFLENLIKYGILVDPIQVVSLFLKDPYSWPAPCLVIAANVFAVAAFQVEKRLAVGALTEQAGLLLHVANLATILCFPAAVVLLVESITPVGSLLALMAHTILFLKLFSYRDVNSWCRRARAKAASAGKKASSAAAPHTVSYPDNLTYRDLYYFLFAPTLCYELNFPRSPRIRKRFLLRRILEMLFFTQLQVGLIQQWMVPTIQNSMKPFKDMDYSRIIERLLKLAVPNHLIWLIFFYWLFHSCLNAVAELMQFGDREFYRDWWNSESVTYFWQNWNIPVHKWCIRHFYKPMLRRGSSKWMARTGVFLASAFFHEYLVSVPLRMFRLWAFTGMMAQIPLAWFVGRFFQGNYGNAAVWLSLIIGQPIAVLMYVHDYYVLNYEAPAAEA
Procedure, shortened: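 FLAG-tagged human DGAT1 membranes (expressed in Sf9 cells) were incubated 120 min at 37° C. in 50 mM Tris-HCl pH 7.4 with 150 mM MgCl2, 1 mM EDTA, 0.2% BSA, 50 μM DAG micelles (PC/PS) and 8.4 μM [^3H]-oleoylCoA. The reaction was stopped with N-ethylmaleimide and read as FlashPlate radioluminescence. Responses were normalized to enzyme/no-enzyme controls to fit dose-response curves.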

Structure (SMILES) | melting point [°C] | GLP-1 plasma levels (postprandial plasma profile) (GLP-1 plasma levels) | IC50 (human DGAT1) [nM]
CNC(C)c1cc(Cl)c(NC(=O)N2CCN(c3ccc(NC(=O)CCCc4ccccc4)cc3)CC2)c(Cl)c1 (stereo not drawn) [Compound 24] | 180.7 | increase GLP-1 levels | 15.8
O=C(CCCc1ccccc1)Nc1ccc(N2CCN(C(=O)Nc3c(F)cc(Br)cc3F)CC2)cc1 [Compound 49] | 207.9 | – | 120
CCOC(=O)CCCC(=O)Nc1ccc(N2CCN(C(=O)Nc3c(Cl)cc(CN4CCCCC4)cc3Cl)CC2)cc1 [Compound 318] | 211 to 212 | – | 64.6
C=CCN(CCC(=O)Nc1ccc(N2CCN(C(=O)Nc3c(Cl)cccc3Cl)CC2)cc1)c1ccc(C)cc1C [Compound 183] | 226 to 227 | – | 12.6
Cc1ccc(NC(=O)N2CCN(c3ccc(NC(=O)CCCc4ccccc4)cc3)CC2)c(C)c1 [Compound 66] | 181.7 | – | 26.9
CS(=O)(=O)N1CCN(CCC(=O)Nc2ccc(N3CCN(C(=O)Nc4c(Cl)cccc4Cl)CC3)cc2)CC1 [Compound 172] | 250 to 252 | – | 603
O=C(Nc1ccc(N2CCN(C(=O)Nc3c(Cl)cccc3Cl)CC2)cc1)C(O)CCc1ccccc1 (stereo not drawn) [Compound 48] | 253.4 | – | 148
C=CCN(CC(=O)Nc1ccc(N2CCN(C(=O)Nc3c(Cl)cc(OC)cc3OC)CC2)cc1)c1ccc(C)cc1C [Compound 186] | 181 to 182 | – | 13.8
C=CCN(CC(=O)Nc1ccc(N2CCN(C(=O)Nc3c(Cl)cccc3Cl)CC2)cc1)Cc1ccc(F)cc1 [Compound 51] | 177.8 | – | 18.2
COc1ccc(CN(C)C(=O)c2ccc(N3CCN(C(=O)Nc4c(Cl)cc(CN5CCCC5)cc4Cl)CC3)cc2)cc1 [Compound 263] | 132.84 | – | 3720
O=C(CCCc1ccncc1)Nc1ccc(N2CCN(C(=O)Nc3c(Cl)cccc3Cl)CC2)cc1 [Compound 197] | 251 to 252 | – | 123
CC1CN(CC(=O)Nc2ccc(N3CCN(C(=O)Nc4c(Cl)cccc4Cl)CC3)cc2)CC(C)O1 (stereo not drawn) [Compound 37] | 237.1 | – | 129
CC(=O)c1cc(Cl)c(NC(=O)N2CCC(c3ccc(NC(=O)CCCc4ccccc4)cc3)CC2)c(Cl)c1 [Compound 319] | 160 to 161 | – | 66.1
O=C(CCCc1ccccc1)Nc1ccc(N2CCN(C(=O)Nc3cc(C(F)(F)F)ccc3Cl)CC2)cc1 [Compound 81] | 170.3 | – | 3310
Cc1cccc(Cl)c1NC(=O)N1CCN(c2ccc(NC(=O)CCCc3ccccc3)cc2)CC1 [Compound 60] | 240.7 | – | 12.6
O=C(CN1CCCC1)Nc1ccc(N2CCN(C(=O)Nc3c(Cl)cccc3Cl)CC2)cc1 [Compound 201] | 214 to 216 | – | 1950
CCOC(=O)CCCC(=O)Nc1ccc(N2CCN(C(=O)Nc3c(Cl)cc(CN4CCCC4)cc3Cl)CC2)cc1 [Compound 322] | 208.65 | – | 91.2
O=C(CC1CCCCC1)Nc1ccc(N2CCN(C(=O)Nc3c(Cl)cccc3Cl)CC2)cc1 [Compound 1] | 285.3 | – | 4.47
O=C(CCCc1ccccc1)Nc1ccc(N2CCN(C(=O)Nc3c(Cl)cc(O)cc3Cl)CC2)cc1 [Compound 30] | 175.4 | increase GLP-1 levels | 4.47
O=C(CCCc1ccccc1)Nc1ccc(N2CCN(C(=O)Nc3c(F)cccc3F)CC2)cc1 [Compound 67] | 187 | – | 60.3
CS(=O)(=O)N1CCN(CC(=O)Nc2ccc(N3CCN(C(=O)Nc4c(Cl)cccc4Cl)CC3)cc2)CC1 [Compound 26] | 232 to 234 | – | 692
O=C(NCc1ccc(-c2ccccn2)cc1)c1ccc(N2CCN(C(=O)Nc3c(Cl)cc(CN4CCCC4)cc3Cl)CC2)cc1 [Compound 236] | 217.37 | – | 60.3

Structure (SMILES) | melting point [°C] | GLP-1 plasma levels (postprandial plasma profile) (GLP-1 plasma levels) | IC50 (human DGAT1) [nM]
COc1ccc(CCNC(=O)c2ccc(N3CCN(C(=O)Nc4c(Cl)cc(CN5CCCC5)cc4Cl)CC3)cc2F)cc1 [Compound 246] | 235 to 237 | – | 151
O=C(CCN1CCCCC1)Nc1ccc(N2CCN(C(=O)Nc3c(Cl)cccc3Cl)CC2)cc1 [Compound 138] | 241.1 | – | 1320
COc1cc(Cl)c(NC(=O)N2CCN(c3ccc(NC(=O)CNc4ccc(C)cc4C)cc3)CC2)c(Cl)c1 [Compound 31] | 175 to 176 | – | 4.47
CC(c1cc(Cl)c(NC(=O)N2CCN(c3ccc(NC(=O)CCCc4ccccc4)cc3)CC2)c(Cl)c1)N(C)C (stereo not drawn) [Compound 288] | 191.86 | – | 10
O=C(CNc1ccccc1)Nc1ccc(N2CCN(C(=O)Nc3c(Cl)cccc3Cl)CC2)cc1 [Compound 21] | 244 to 246 | – | 72.4
O=C(CNCc1ccc(Cl)cc1)Nc1ccc(N2CCN(C(=O)Nc3c(Cl)cccc3Cl)CC2)cc1 [Compound 178] | 183 to 184 | – | 75.9
O=C(CCCc1ccccc1)Nc1ccc(N2CCN(C(=S)Nc3c(Cl)cccc3Cl)CC2)cc1 [Compound 189] | 238.7 | – | 12
CSc1ccccc1NC(=O)N1CCN(c2ccc(NC(=O)CCCc3ccccc3)cc2)CC1 [Compound 79] | 127.1 | – | 1450
O=C(CCN(Cc1ccc(F)cc1)S(=O)(=O)c1ccccc1[N+](=O)[O-])Nc1ccc(N2CCN(C(=O)Nc3c(Cl)cccc3Cl)CC2)cc1 [Compound 175] | 215 to 216 | – | 24
O=C(CCCc1ccccc1)Nc1ccc(N2CCN(C(=O)Nc3ccccc3)CC2)cc1 [Compound 339] | 219.91 | – | 3090
CCc1ccccc1NC(=O)N1CCN(c2ccc(NC(=O)CCCc3ccccc3)cc2)CC1 [Compound 93] | 189 | – | 240
COc1ccc(CNC(=O)c2ccc(N3CCN(C(=O)Cc4c(Cl)cccc4Cl)CC3)cc2)c(OC)c1 [Compound 230] | 180.99 | – | 42.7
CCOCCNC(=O)c1ccc(N2CCN(C(=O)Cc3c(Cl)cccc3Cl)CC2)cc1 [Compound 262] | 175.07 | – | 3240
O=C(CCCc1ccccc1)Nc1ccc(N2CCN(C(=O)Nc3c(Cl)cc(Cl)cc3Cl)CC2)cc1 [Compound 59] | 234.9 | – | 12.9
O=C(CCCc1ccccc1)Nc1ccc(N2CCN(C(=O)Nc3c(Cl)cccc3C(F)(F)F)CC2)cc1 [Compound 62] | 254 | – | 16.2
CC(C)NC(=O)N(C)CC(=O)Nc1ccc(N2CCN(C(=O)Nc3c(Cl)cccc3Cl)CC2)cc1 [Compound 14] | 217 to 219 | – | 316
O=C(CCCc1ccccc1)Nc1ccc(N2CCN(C(=O)Nc3ccccc3F)CC2)cc1 [Compound 94] | 177.3 | – | 295
O=C(CNc1ccccc1Cl)Nc1ccc(N2CCN(C(=O)Nc3c(Cl)cccc3Cl)CC2)cc1 [Compound 4] | 247 to 249 | – | 2.69
CC(C)(C)CC(C)(C)NC(=O)N1CCN(c2ccc(NC(=O)CCCc3ccccc3)cc2)CC1 [Compound 85] | 202.3 | – | 1950
O=C(CC(=O)OCc1ccccc1)Nc1ccc(N2CCN(C(=O)Nc3c(Cl)cc(CN4CCCC4)cc3Cl)CC2)cc1 [Compound 307] | 206.22 | – | 29.5
CN(C)CC(=O)Nc1ccc(N2CCN(C(=O)Nc3c(Cl)cccc3Cl)CC2)cc1 [Compound 200] | 245 to 246 | – | 3630
O=C(CCCc1ccccc1)Nc1ccc(N2CCN(C(=O)Nc3c(Cl)ccc4c3CCO4)CC2)cc1 [Compound 12] | 209.8 | – | 182

From US8981094B2, “Piperidine/piperazine derivatives” (Janssen Pharmaceutica N.V., priority 2007, dated 2015)
